Measurements as given in the NIST ThermoML archive (doi:10.1021/je201032t).
± gives the expanded uncertainty stated by the source.

Experiments:
[1] = Liquid, Ebulliometric method (Recirculating still)
[2] = refractive index (Na D-line) (dimensionless); conditions: 293.15 K; 101.33 kPa; Liquid; Standard Abbe refractometry

SMILES | vapor or sublimation pressure ([1]; 323 K) [kPa] | vapor or sublimation pressure ([1]; 343.4 K) [kPa] | vapor or sublimation pressure ([1]; 353.2 K) [kPa] | vapor or sublimation pressure ([1]; 363.1 K) [kPa] | vapor or sublimation pressure ([1]; 369.2 K) [kPa] | refractive index [2]
CCCO [propan-1-ol] | 12.11 ± 1.2 | 32.82 ± 1.2 | 50.82 ± 1.3 | 76.67 ± 1.4 | 96.66 ± 1.4 | 1.382 ± 0.0007
CCCCCCCCCCCC [dodecane] | 0.12 | 0.46 | 0.73 ± 1.2 | 1.31 ± 1.2 | 1.76 ± 1.2 | 1.4192 ± 0.0007
